Test results reported in patent US20250171437A1 (Agios Pharmaceuticals,Inc., priority 2022, published 2025).

Target: T1, human PAH with the R408W mutation (A375 R408W cells) (Homo sapiens, UniProt P00439, R408W)
T1 construct: expressed in transfected cells
T1 sequence (P00439 1-452 R408W): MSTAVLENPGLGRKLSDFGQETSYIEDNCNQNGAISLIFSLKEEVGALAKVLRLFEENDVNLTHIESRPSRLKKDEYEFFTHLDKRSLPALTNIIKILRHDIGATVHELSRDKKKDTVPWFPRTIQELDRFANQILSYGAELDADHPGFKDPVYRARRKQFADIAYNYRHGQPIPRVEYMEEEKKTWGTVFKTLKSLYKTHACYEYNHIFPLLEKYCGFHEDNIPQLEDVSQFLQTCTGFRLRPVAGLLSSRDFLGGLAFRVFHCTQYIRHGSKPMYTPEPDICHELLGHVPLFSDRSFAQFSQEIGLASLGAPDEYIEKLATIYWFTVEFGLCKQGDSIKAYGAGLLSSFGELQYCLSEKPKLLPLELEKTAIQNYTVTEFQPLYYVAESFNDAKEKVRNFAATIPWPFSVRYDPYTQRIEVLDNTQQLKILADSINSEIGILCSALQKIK
Test: Cell Based Phenylalanine Flux Assay
Conditions: A375 R408W cells; 24 hrs with compound, then 20 μM sepiapterin and 800 μM 13C9,15N-Phenylalanine for 4 hours; 13C-Tyrosine by LC-MS; average where tested multiple times
Outline: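 Phenylalanine-to-tyrosine flux is measured in A375 cells carrying stable human R408W PAH. After 24 h compound exposure, 13C9,15N-Phe (800 μM) with sepiapterin (20 μM) is supplied for 4 h and media 13C-Tyr is read by LC-MS; AC50s are binned.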

SMILES | AC50
Cn1ccc(-c2nnc(C(=O)N3CCc4[nH]cnc4[C@@H]3c3nc4ccc(F)cc4o3)o2)n1 [Example 322, (R)-(4-(6-fluorobenzo[d]oxazol-2-yl)-6,7-dihydro-1H-imidazo[4,5-c]pyridin-5(4H)-yl)(5-(1-methyl-1H-pyrazol-3-yl)-1,3,4-oxadiazol-2-yl)methanone] | 1 to 5 µM
Cc1cccc2nc([C@H]3c4nc[nH]c4CCN3C(=O)c3nc(C(F)(F)F)nn3C)oc12 [Example 686, (R)-(1-methyl-3-(trifluoromethyl)-1H-1,2,4-triazol-5-yl)(4-(7-methylbenzo[d]oxazol-2-yl)-6,7-dihydro-1H-imidazo[4,5-c]pyridin-5(4H)-yl)methanone] | 1 to 5 µM
O=C(c1ccnn1C(F)F)N1CCc2[nH]cnc2[C@H]1c1nc2cc(F)ccc2o1 [Example 93, (S)-(1-(difluoromethyl)-1H-pyrazol-5-yl)(4-(5-fluorobenzo[d]oxazol-2-yl)-6,7-dihydro-1H-imidazo[4,5-c]pyridin-5(4H)-yl)methanone] | 0.5 to 1 µM
Cn1nc(C(F)F)nc1C(=O)N1CCc2[nH]cnc2[C@H]1c1nc2cc(F)cc(F)c2o1 [Example 577, (S)-(4-(5,7-difluorobenzo[d]oxazol-2-yl)-6,7-dihydro-1H-imidazo[4,5-c]pyridin-5(4H)-yl)(3-(difluoromethyl)-1-methyl-1H-1,2,4-triazol-5-yl)methanone] | 0.5 to 1 µM
O=C(c1nnc(-c2cnn(C(F)F)c2)o1)N1CCc2[nH]cnc2[C@@H]1c1nc2ccccc2o1 [Example 842, (R)-(4-(benzo[d]oxazol-2-yl)-6,7-dihydro-1H-imidazo[4,5-c]pyridin-5(4H)-yl)(5-(1-(difluoromethyl)-1H-pyrazol-4-yl)-1,3,4-oxadiazol-2-yl)methanone] | 1 to 5 µM
CN(C)CCc1ccc2c(C(=O)N3CCc4[nH]cnc4[C@@H]3c3nc4cc(F)ccc4o3)cnn2c1 [Example 48, (R)-(6-(2-(dimethylamino)ethyl)pyrazolo[1,5-a]pyridin-3-yl)(4-(5-fluorobenzo[d]oxazol-2-yl)-6,7-dihydro-1H-imidazo[4,5-c]pyridin-5(4H)-yl)methanone] | ≥ 5 µM
Cc1nc([C@H](C)O)oc1C(=O)N1CCc2[nH]cnc2[C@H]1c1nc2cccc(F)c2o1 [Example 247, ((S)-4-(7-fluorobenzo[d]oxazol-2-yl)-6,7-dihydro-1H-imidazo[4,5-c]pyridin-5(4H)-yl)(2-((S)-1-hydroxyethyl)-4-methyloxazol-5-yl)methanone] | 0.5 to 1 µM
CC(C)(O)c1nc(C(F)(F)F)c(C(=O)N2CCc3[nH]cnc3[C@H]2c2nc3c(F)cccc3o2)o1 [Example 257, (S)-(4-(4-fluorobenzo[d]oxazol-2-yl)-6,7-dihydro-1H-imidazo[4,5-c]pyridin-5(4H)-yl)(2-(2-hydroxypropan-2-yl)-4-(trifluoromethyl)oxazol-5-yl)methanone] | ≤ 0.5 µM
COc1cccc2nc([C@H]3c4nc[nH]c4CCN3C(=O)c3oc(C(C)(C)O)nc3C(F)F)oc12 [Example 456, (R)-(4-(difluoromethyl)-2-(2-hydroxypropan-2-yl)oxazol-5-yl)(4-(7-methoxybenzo[d]oxazol-2-yl)-6,7-dihydro-1H-imidazo[4,5-c]pyridin-5(4H)-yl)methanone] | 1 to 5 µM
Cn1cc(-c2nnc(C(=O)N3CCc4[nH]cnc4[C@H]3c3nc4cccc(F)c4o3)o2)cn1 [Example 191, (S)-(4-(7-fluorobenzo[d]oxazol-2-yl)-6,7-dihydro-1H-imidazo[4,5-c]pyridin-5(4H)-yl)(5-(1-methyl-1H-pyrazol-4-yl)-1,3,4-oxadiazol-2-yl)methanone] | 0.5 to 1 µM
Cn1cc(-c2ccc3c(C(=O)N4CCc5[nH]cnc5[C@@H]4c4nc5cccc(F)c5o4)cnn3c2)cn1 [Example 384, (R)-(4-(7-fluorobenzo[d]oxazol-2-yl)-6,7-dihydro-1H-imidazo[4,5-c]pyridin-5(4H)-yl)(6-(1-methyl-1H-pyrazol-4-yl)pyrazolo[1,5-a]pyridin-3-yl)methanone] | 1 to 5 µM
Cc1cccc2oc([C@@H]3c4nc[nH]c4CCN3C(=O)c3cnc(C(C)(C)O)o3)nc12 [Example 511, (S)-(2-(2-hydroxypropan-2-yl)oxazol-5-yl)(4-(4-methylbenzo[d]oxazol-2-yl)-6,7-dihydro-1H-imidazo[4,5-c]pyridin-5(4H)-yl)methanone] | 0.5 to 1 µM
Cc1nc(C(=O)N2CCc3[nH]cnc3[C@H]2c2nc3cccc(C)c3o2)n(C)n1 [Example 907, (S)-(1,3-dimethyl-1H-1,2,4-triazol-5-yl)(4-(7-methylbenzo[d]oxazol-2-yl)-6,7-dihydro-1H-imidazo[4,5-c]pyridin-5(4H)-yl)methanone] | 1 to 5 µM
Cc1cccc2nc([C@@H]3c4nc[nH]c4CCN3C(=O)c3nnc(-c4ccn(C)n4)o3)oc12 [Example 869, (S)-(5-(1-methyl-1H-pyrazol-3-yl)-1,3,4-oxadiazol-2-yl)(4-(7-methylbenzo[d]oxazol-2-yl)-6,7-dihydro-1H-imidazo[4,5-c]pyridin-5(4H)-yl)methanone] | ≤ 0.5 µM
O=C(c1ocnc1C(F)(F)F)N1Cc2[nH]cnc2[C@H]1c1nc2ccccc2o1 [Example 944, (S)-(4-(benzo[d]oxazol-2-yl)-4,6-dihydropyrrolo[3,4-d]imidazol-5(1H)-yl)(4-(trifluoromethyl)oxazol-5-yl)methanone] | 1 to 5 µM
Cc1cccc2nc([C@H]3c4nc[nH]c4CCN3C(=O)c3nnc(-c4ccn(C(F)F)n4)o3)oc12 [Example 859, (R)-(5-(1-(difluoromethyl)-1H-pyrazol-3-yl)-1,3,4-oxadiazol-2-yl)(4-(7-methylbenzo[d]oxazol-2-yl)-6,7-dihydro-1H-imidazo[4,5-c]pyridin-5(4H)-yl)methanone] | 1 to 5 µM
CC(C)(C)c1ncc(C(=O)N2CCc3[nH]cnc3[C@H]2c2nc3cc(F)ccc3o2)o1 [Example 21, (S)-(2-(tert-butyl)oxazol-5-yl)(4-(5-fluorobenzo[d]oxazol-2-yl)-6,7-dihydro-1H-imidazo[4,5-c]pyridin-5(4H)-yl)methanone] | ≤ 0.5 µM
Cc1c(F)ccc2oc([C@H]3c4nc[nH]c4CCN3C(=O)c3oc(C(C)(C)O)nc3C(F)F)nc12 [Example 720, (R)-(4-(difluoromethyl)-2-(2-hydroxypropan-2-yl)oxazol-5-yl)(4-(5-fluoro-4-methylbenzo[d]oxazol-2-yl)-6,7-dihydro-1H-imidazo[4,5-c]pyridin-5(4H)-yl)methanone] | 0.5 to 1 µM
CC(C)(C)c1ncc(C(=O)N2CCc3[nH]cnc3[C@H]2c2nc3cc(F)ccc3o2)s1 [Example 17, (S)-(2-(tert-butyl)thiazol-5-yl)(4-(5-fluorobenzo[d]oxazol-2-yl)-6,7-dihydro-1H-imidazo[4,5-c]pyridin-5(4H)-yl)methanone] | ≤ 0.5 µM
Cn1nccc1C(=O)N1CCc2[nH]cnc2[C@@H]1c1nc2ccccc2o1 [Example 712, (R)-(4-(benzo[d]oxazol-2-yl)-6,7-dihydro-1H-imidazo[4,5-c]pyridin-5(4H)-yl)(1-methyl-1H-pyrazol-5-yl)methanone] | 1 to 5 µM
Cn1ccc(-c2nnc(C(=O)N3CCc4[nH]cnc4[C@@H]3c3nc4cccc(C(F)(F)F)c4o3)o2)n1 [Example 831, (R)-(5-(1-methyl-1H-pyrazol-3-yl)-1,3,4-oxadiazol-2-yl)(4-(7-(trifluoromethyl)benzo[d]oxazol-2-yl)-6,7-dihydro-1H-imidazo[4,5-c]pyridin-5(4H)-yl)methanone] | 0.5 to 1 µM

Same assay, conditions: A375 cells expressing R408W PAH; 24 hrs with compound, then 20 μM sepiapterin and 800 μM 13C9,15N-Phenylalanine for 4 hours; 13C-Tyrosine by LC-MS; average where tested multiple times

SMILES | AC50
CC1CN(C(=O)c2oc(C(C)(C)O)nc2C(F)F)C(c2nc3cc(F)ccc3o2)c2nc[nH]c21 (stereo not shown) | ≥ 5 µM
O=C(c1cnn2cc(N3CCC(O)CC3)ccc12)N1CCc2[nH]cnc2C1c1nc2c(F)c(F)ccc2o1 (stereo not shown) | ≥ 5 µM
O=C(c1nnc(-c2ccc(C(F)(F)F)cn2)o1)N1CCc2[nH]cnc2C1c1nc2cc(F)ccc2o1 (stereo not shown) | 1 to 5 µM
Nc1cc(C(=O)N2CCc3[nH]cnc3C2c2nc3cc(F)ccc3o2)n(C(F)F)n1 (stereo not shown) | ≥ 5 µM
O=C(c1cnn2cc(N3CCC(O)CC3)ccc12)N1CCc2[nH]cnc2C1c1nc2cc(F)ccc2o1 (stereo not shown) | 1 to 5 µM
CC(C)(O)c1nc(C(F)F)c(C(=O)N2CC3(CC3)c3[nH]cnc3C2c2nc3cc(F)ccc3o2)o1 (stereo not shown) | 1 to 5 µM
CC(C)(O)c1nc(C(F)F)c(C(=O)N2CCc3[nH]cnc3C2c2nc3cc(F)c(F)cc3o2)o1 (stereo not shown) | 1 to 5 µM
CN(C)CCCOc1ccc2c(C(=O)N3CCc4[nH]cnc4C3c3nc4cc(F)ccc4o3)cnn2c1 (stereo not shown) | ≥ 5 µM
O=C(c1cncs1)N1CCc2[nH]cnc2C1c1nc2cc(F)ccc2o1 (stereo not shown) | 1 to 5 µM
COCc1ccc2c(C(=O)N3CCc4[nH]cnc4C3c3nc4ccc(C)cc4o3)cnn2c1 (stereo not shown) | 1 to 5 µM
O=C(c1ccn(CC(F)F)n1)N1CCc2[nH]cnc2C1c1nc2ccccc2o1 (stereo not shown) | 1 to 5 µM
Cn1nc(C(F)(F)F)nc1C(=O)N1CCc2[nH]cnc2C1c1nc2c(F)cccc2o1 (stereo not shown) | 1 to 5 µM
Cc1cccc2nc(C3c4nc[nH]c4CCN3C(=O)c3ncnn3C)oc12 (stereo not shown) | 1 to 5 µM
N#Cc1ncoc1C(=O)N1CCc2[nH]cnc2C1c1nc2cc(F)ccc2o1 (stereo not shown) | ≥ 5 µM
CC(C)(O)c1nc(C(=O)N2CCc3[nH]cnc3C2c2nc3cc(F)ccc3o2)no1 (stereo not shown) | ≥ 5 µM
COCCOc1ccc2c(C(=O)N3CCc4[nH]cnc4C3c3nc4cc(F)ccc4o3)cnn2c1 (stereo not shown) | 1 to 5 µM
